Results published in patent publication US9497972B2, “Compositions comprising a biological control agent and an insecticide” (priority 2012, dated 2016).

Assays:
Assay type in all cases: in vivo
Myzus persicae [1] = assay: Myzus persicae spray test (MYZUPE), Example A: Chinese cabbage leaf-disks
Procedure: (§1) For all examples efficiencies of the compositions comprising at least one BCA and at least one specific insecticide has been determined by the “Colby-formula”: The expected efficacy of a given combination of two compounds is calculated as follows (see Colby, S. R., “Calculating Synergistic and antagonistic Responses of Herbicide Combinations”, Weeds 15, pp. 20-22, 1967):
(§2) If • X is the efficacy expressed in % mortality of the untreated control for test compound A at a concentration of m ppm respectively m g/ha, • Y is the efficacy expressed in % mortality of the untreated control for test compound B at a concentration of n ppm respectively n g/ha, • E is the efficacy expressed in % mortality of the untreated control using the mixture of A and B at m and n ppm respectively m and n g/ha, then is E=X+Y−(X×Y/100)
(§3) If the observed insecticidal efficacy of the combination is higher than the one calculated as “E”, then the combination of the two compounds is more than additive, i.e., there is a synergistic effect.
Myzus persicae—Spray Test (MYZUPE)
(§4) To produce a suitable preparation of active compound, 1 part by weight of active compound is mixed with the stated amount of solvent and emulsifier, and the concentrate is diluted with emulsifier-containing water to the desired concentration. To produce a suitable preparation of a spore suspension the spores are diluted with emulsifier-containing water to the desired concentration.
Chinese cabbage (Brassica pekinensis) leaf-disks infected with all instars of the green peach aphid (Myzus persicae), are sprayed with a preparation of the active ingredient of the desired concentration.
After the specified period of time, mortality in % is determined. 100% means all aphids have been killed; 0% means none of the aphids have been killed. The mortality values determined thus are recalculated using the Colby-formula (see above).

Phaedon cochleariae = Phaedon cochleariae spray test, Example C: Chinese cabbage leaf-disks
Procedure: as §1, §2, §3
Phaedon cochleariae—Spray Test
as §4
Chinese cabbage (Brassica pekinensis) leaf-disks are sprayed with a preparation of the active ingredient of the desired concentration. Once dry, the leaf disks are infested with mustard beetle larvae (Phaedon cochleariae).
After the specified period of time, mortality in % is determined. 100% means all beetle larvae have been killed and 0% means none of the beetle larvae have been killed. The mortality values determined thus are recalculated using the Colby-formula (see above).

Myzus persicae [2] = assay: Myzus persicae spray test, Example E: cabbage leaves (Brassica oleracea); settings: 1 ppm
Procedure: as §1, §2, §3
Myzus persicae—Spray Test […]
(§5) After the specified period of time, mortality in % is determined. […] The mortality values determined thus are recalculated using the Colby-formula (see above).

Spodoptera frugiperda = Spodoptera frugiperda spray test, Example D: maize leaf sections
Procedure: as §1, §2, §3
Spodoptera frugiperda—Spray Test
as §4, with “preparation of the active compound,” for “preparation of active compound,”
Maize (Zea mais) leaf sections are sprayed with a preparation of the active ingredient of the desired concentration. Once dry, the leaf sections are infested with fall armyworm larvae (Spodoptera frugiperda).
After the specified period of time, mortality in % is determined. 100% means all caterpillars have been killed and 0% means none of the caterpillars have been killed. The mortality values determined thus are recalculated using the Colby-formula (see above).

Tetranychus urticae = Tetranychus urticae spray test, OP-resistant, Example B: French beans
Procedure: as §1, §2, §3
Tetranychus urticae—Spray Test, OP-Resistant […]
as §5

CN/C(=N\[N+](=O)[O-])NCc1cnc(Cl)s1 [Clothianidin (I142), Clothianidin]
Efficacy in % after 1^d (Myzus persicae [1]; 0.8 g/ha): 70%
Efficacy in % after 6^d (Myzus persicae [1]; 4 g/ha): 70%
Efficacy in % after 2^d (Phaedon cochleariae; 20 g ai/ha): 0%

O=[N+]([O-])NC1=NCCN1Cc1ccc(Cl)nc1 [Imidacloprid (I144), Imidacloprid]
Efficacy in % after 6^d (Myzus persicae [1]; 0.032 g/ha): 0%
Efficacy in % after 1^d (Myzus persicae [1]; 0.16 g/ha): 0%
Efficacy in % after 1^d (Myzus persicae [1]; 0.4 g/ha): 70%

CC(c1ccc(C(F)(F)F)nc1)S(C)(=O)=NC#N (centres unmarked) [Sulfoxaflor (I149), Sulfoxaflor]
Efficacy in % after 6^d (Myzus persicae [1]; 0.08 g/ha): 70%
Efficacy in % after 6^d (Myzus persicae [1]; 0.4 g/ha): 70%

N#C/N=C1\SCCN1Cc1ccc(Cl)nc1 [Thiacloprid (I146), Thiacloprid]
Efficacy in % after 1^d (Myzus persicae [2]): 35%
Efficacy in % after 6^d (Myzus persicae [1]; 0.16 g/ha): 0%
Efficacy in % after 6^d (Myzus persicae [1]; 0.8 g/ha): 70%

CN1COCN(Cc2cnc(Cl)s2)/C1=N\[N+](=O)[O-] [Thiamethoxam (I147), Thiamethoxam]
Efficacy in % after 6^d (Myzus persicae [1]; 0.16 g/ha): 0%
Efficacy in % after 1^d (Myzus persicae [1]; 0.4 g/ha): 0%
Efficacy in % after 1^d (Myzus persicae [1]; 2 g/ha): 0%

Spinetoram [Spinetoram (I150)]
Efficacy in % after 2^d (Spodoptera frugiperda; 0.16 g ai/ha): 67%
Efficacy in % after 6^d (Phaedon cochleariae; 0.16 g ai/ha): 0%
Efficacy in % after 6^d (Phaedon cochleariae; 0.8 g ai/ha): 33%

Spinosad [Spinosad (I151)]
Efficacy in % after 6^d (Spodoptera frugiperda; 0.16 g ai/ha): 0%
Efficacy in % after 2^d (Spodoptera frugiperda; 0.8 g ai/ha): 0%
Efficacy in % after 6^d (Myzus persicae [1]; 20 g/ha): 0%
Efficacy in % after 6^d (Phaedon cochleariae; 4 g ai/ha): 0%
Efficacy in % after 6^d (Tetranychus urticae; 4 g ai/ha): 0%
Efficacy in % after 2^d (Tetranychus urticae; 20 g ai/ha): 50%
